Data from patent US7183280B2, “Bicyclic imidazole derivatives, the preparation thereof and their use as pharmaceutical compositions” (Boehringer Ingelheim International GmbH, priority 2004, dated 2007).

What follows are compounds tested against T1, DPP-IV (Homo sapiens, UniProt P27487) (assay: DPP-IV assay with Caco-2 cell extract, AFC substrate, fluorescence). Details: extract of human colon carcinoma cell line Caco-2 as DPP IV source; AFC substrate 100 μM; 60 minutes, ambient temperature; read-out: DPP IV inhibition IC50.
T1 construct: an extract of the human colon carcinoma cell line Caco-2 is used as the DPP IV source; endogenous in cells; host or cells: Caco-2 (human colon carcinoma), differentiated to induce DPP-IV expression; Nonidet-P40 solubilised extract
T1 sequence (P27487 whole entry): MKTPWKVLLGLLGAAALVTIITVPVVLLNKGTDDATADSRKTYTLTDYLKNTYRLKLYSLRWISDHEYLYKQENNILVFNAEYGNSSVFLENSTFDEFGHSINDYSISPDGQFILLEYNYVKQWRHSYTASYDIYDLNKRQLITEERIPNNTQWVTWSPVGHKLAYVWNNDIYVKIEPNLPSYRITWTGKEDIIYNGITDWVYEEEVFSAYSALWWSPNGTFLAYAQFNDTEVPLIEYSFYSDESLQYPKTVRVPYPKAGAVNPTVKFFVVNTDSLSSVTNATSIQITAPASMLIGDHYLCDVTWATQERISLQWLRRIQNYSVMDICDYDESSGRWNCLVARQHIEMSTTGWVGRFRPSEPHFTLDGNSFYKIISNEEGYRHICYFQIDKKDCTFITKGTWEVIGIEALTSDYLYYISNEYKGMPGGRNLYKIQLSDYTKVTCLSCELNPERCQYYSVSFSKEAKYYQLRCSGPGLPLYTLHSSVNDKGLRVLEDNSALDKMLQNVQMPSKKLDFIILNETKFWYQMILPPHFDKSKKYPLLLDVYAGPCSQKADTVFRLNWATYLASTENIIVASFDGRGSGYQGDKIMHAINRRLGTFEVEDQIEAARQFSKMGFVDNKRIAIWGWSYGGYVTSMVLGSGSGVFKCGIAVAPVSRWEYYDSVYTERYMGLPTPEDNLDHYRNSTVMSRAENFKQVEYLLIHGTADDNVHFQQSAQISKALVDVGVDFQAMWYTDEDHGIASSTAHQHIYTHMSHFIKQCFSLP
Type: biochemical
Protocol: The differentiation of the cells in order to induce the DPP-IV expression was carried out in accordance with the description by Reiher et al. in an article entitled “Increased expression of intestinal cell line Caco-2”, which appeared in Proc. Natl. Acad. Sci. Vol. 90, pp. 5757–5761 (1993). The cell extract was obtained from cells solubilised in a buffer (10 mM Tris HCl, 0.15 M NaCl, 0.04 t.i.u. aprotinin, 0.5% Nonidet-P40, pH 8.0) by centrifugation at 35,000 g for 30 minutes at 4° C. (to remove cell debris).
The DPP-IV assay was carried out as follows:
50 μl of substrate solution (AFC; AFC is amido-4-trifluoromethylcoumarin), final concentration 100 μM, were placed in black microtitre plates. 20 μl of assay buffer (final concentrations 50 mM Tris HCl pH 7.8, 50 mM NaCl, 1% DMSO) was pipetted in. The reaction was started by the addition of 30 μl of solubilised Caco-2 protein (final concentration 0.14 μg of protein per well). The test substances under investigation were typically added prediluted to 20 μl, while the volume of assay buffer was then reduced accordingly. The reaction was carried out at ambient temperature, the incubation period was 60 minutes. Then the fluorescence was measured in a Victor 1420 Multilabel Counter, with the excitation wavelength at 405 nm and the emission wavelength at 535 nm. Dummy values (corresponding to 0% activity) were obtained in mixtures with no Caco-2 protein (volume replaced by assay buffer), control values (corresponding to 100% activity) were obtained in mixtures without any added substance. The potency of the test substances in question, expressed as IC50 values, were calculated from dosage/activity curves consisting of 11 measured points in each case.

Compound	IC50
CC#CCn1c(N2CCC[C@@H](N)C2)nc2c1c(=O)n(Cc1c3ccccc3c3ccccc3[n+]1[O-])c(=O)n2C [1(3), 1-[(5-oxy-phenanthridin-6-yl)methyl]-3-methyl-7-(2-butyn-1-yl)-8-((R)-3-amino-piperidin-1-yl)-xanthine]	6 nM
1-[(1-oxy-quinolin-2-yl)methyl]-3-methyl-7-(2-butyn-1-yl)-8-((R)-3-amino-piperidin-1-yl)-xanthine [1(1)]	1 nM
CC#CCn1c(N2CCC[C@@H](N)C2)nc2c1c(=O)n(Cc1nc3ccccc3c(C)[n+]1[O-])c(=O)n2C [Example 1, 1-[(4-methyl-3-oxy-quinazolin-2-yl)methyl]-3-methyl-7-(2-butyn-1-yl)-8-((R)-3-amino-piperidin-1-yl)-xanthine]	2 nM

Further lines, results first:

IC50	Compound
2 nM	CC#CCn1c(N2CCC[C@@H](N)C2)nc2c1c(=O)n(Cc1nc3ccccc3c[n+]1[O-])c(=O)n2C [1(4), 1-[(3-oxy-quinazolin-2-yl)methyl]-3-methyl-7-(2-butyn-1-yl)-8-((R)-3-amino-piperidin-1-yl)-xanthine]
4 nM	CC#CCn1c(N2CCC[C@@H](N)C2)nc2c1c(=O)n(Cc1c3ccccc3cc(C)[n+]1[O-])c(=O)n2C [1(2), 1-[(3-methyl-2-oxy-isoquinolin-1-yl)methyl]-3-methyl-7-(2-butyn-1-yl)-8-((R)-3-amino-piperidin-1-yl)-xanthine]

The compounds below were run on rats (assay: Tolerability in rats after oral administration). Details: oral administration of 10 mg/kg.
Type: in vivo

Compound	toxic side effects
CC#CCn1c(N2CCC[C@@H](N)C2)nc2c1c(=O)n(Cc1nc3ccccc3c(C)[n+]1[O-])c(=O)n2C [Example 1, 1-[(4-methyl-3-oxy-quinazolin-2-yl)methyl]-3-methyl-7-(2-butyn-1-yl)-8-((R)-3-amino-piperidin-1-yl)-xanthine]	no toxic side effects could be detected
